Reference: patent US20250140406A1, “CLASSIFYING TUMORS AND PREDICTING RESPONSIVENESS” (Oncocyte Corporation, priority 2022, published 2025)

What was measured:
[1] = tested on: cancer cell lines, DetermaIO classes; test: Association of PRISM compound sensitivity with DetermaIO (DTIO) cell line classes; format: cell-based
[2] = tested on: cancer cell lines classified IM, MSL, M; test: PRISM screen compound sensitivity correlated with IM, MSL and M subtype of cell lines (101 gene signature); format: cell-based; conditions: for TNBCType test: test data set; for IM Corr test: correlation of PRISM compound sensitivity with IM subtype correlation; for M Corr test: correlation of PRISM compound sensitivity with M subtype correlation; for MSL Corr test: correlation of PRISM compound sensitivity with MSL subtype correlation
[3] = association of compound sensitivity with DetermaIO classes, test data set
[4] = association of compound sensitivity with DetermaIO classes, training data set
[5] = classification of association of compound sensitivity with IM, MSL and M cell line classes
[6] = classification of association of compound sensitivity with IM, MSL and M cell line classes, training data set
[7] = correlation of PRISM compound sensitivity with DTIO, test cell set
[8] = correlation of PRISM compound sensitivity with DTIO, training cell set
[9] = subtype (IM, MSL or M) with which PRISM compound sensitivity is negatively correlated, training cell set, 101 gene signature
[10] = correlation of PRISM compound sensitivity with DTIO (DetermaIO), test cell set (188 cell lines)
[11] = correlation of PRISM compound sensitivity with DTIO (DetermaIO), training cell set (371 cell lines)
[12] = subtype (IM, MSL or M) assigned to the compound by negative correlation of PRISM sensitivity with subtype, training cell set (371 cell lines), 101 gene signature
[13] = subtype (IM, MSL or M) with which compound sensitivity is negatively correlated, training cell set (371 cell lines), 101 gene signature
[14] = correlation of compound sensitivity with DTIO, test set
[15] = correlation of compound sensitivity with DTIO, training set

Compound | DTIO Corr test [1, 7] | DTIO Corr train [1, 8] | IM Corr test ([2]; test cell set (188 cell lines)) | M Corr test ([2]; test cell set (188 cell lines)) | MSL Corr test ([2]; test cell set (188 cell lines)) | other results
COc1cc(Nc2ncc(F)c(Nc3ccc4c(n3)NC(=O)C(C)(C)O4)n2)cc(OC)c1OC [K20285085] |  |  |  |  |  | DTIO Corr test [1, 3]: −0.04153; DTIO Corr train [1, 4]: −0.1076; TNBCType test [2, 5]: MSL; TNBCType train [2, 6]: MSL
COc1cc(-c2ccc(=O)[nH]n2)ccc1OC(F)F [K37561857] |  |  |  |  |  | DTIO Corr test [1, 3]: 0.1699; DTIO Corr train [1, 4]: 0.1782; TNBCType test [2, 5]: MSL
COc1cc2nccc(Oc3ccc(NC(=O)NC4CC4)c(Cl)c3)c2cc1C(N)=O [K39974922] |  |  |  |  |  | DTIO Corr test [1, 3]: 0.002695; DTIO Corr train [1, 4]: −0.03256; TNBCType train [2, 6]: MSL
Nc1cc(F)ccc1NC(=O)/C=C/c1cnn(C/C=C/c2ccccc2)c1 [K61688984] |  |  |  |  |  | DTIO Corr test [1, 3]: −0.02541; DTIO Corr train [1, 4]: 0.06912; TNBCType train [2, 6]: MSL
O=C(O)C[C@H](O)C[C@H](O)/C=C/c1c(C2CC2)nc2ccccc2c1-c1ccc(F)cc1 [K75958547] |  |  |  |  |  | DTIO Corr test [1, 3]: −0.0837; DTIO Corr train [1, 4]: −0.04476; TNBCType train [2, 6]: MSL
COc1cc(OC)cc(N(CCNC(C)C)c2ccc3ncc(-c4cnn(C)c4)nc3c2)c1 [K84868168] |  |  |  |  |  | DTIO Corr test [1, 3]: 0.006092; DTIO Corr train [1, 4]: −0.0744; TNBCType train [2, 6]: MSL
CC[C@H](C)C(=O)O[C@H]1CCC=C2C=C[C@H](C)[C@H](CC[C@@H]3C[C@@H](O)CC(=O)O3)[C@H]21 [K94441233] |  |  |  |  |  | DTIO Corr test [1, 3]: −0.09323; DTIO Corr train [1, 4]: −0.00119; TNBCType test [2, 5]: MSL; TNBCType train [2, 6]: MSL
COc1cc2nccc(Oc3ccc(NC(=O)Nc4ccc(F)cc4F)c(F)c3)c2cc1OC [KI-8751] | 0.03732 | 0.02512 |  |  |  | IM Corr test ([2]; test cell set): 0.1039; M Corr test ([2]; test cell set): −0.09761; MSL Corr test ([2]; test cell set): 0.006054
COc1ccc(/C=C/CCCCOc2ccc(C(=O)c3cccc(C(=O)O)c3)cc2CCC(=O)O)cc1 [LY223982] | −0.04973 | 0.000351 |  |  |  | IM Corr test ([2]; test cell set): 0.01323; M Corr test ([2]; test cell set): 0.005739; MSL Corr test ([2]; test cell set): −0.01914; TNBCType train [2, 9]: MSL
O=C1NC(=O)C(c2cnc3ccccn23)=C1c1cn2c3c(cc(F)cc13)CN(C(=O)N1CCCCC1)CC2 [LY2090314] |  |  | −0.01913 | 0.0417 | −0.00714 | DTIO Corr test [1, 10]: 0.003829; DTIO Corr train [1, 11]: −0.08353; TNBCType train [2, 12]: MSL
C[C@@H](Oc1ccc2[nH]nc(/C=C/c3cnn(CCO)c3)c2c1)c1c(Cl)cncc1Cl [LY2874455] | −0.0838 | −0.1449 | −0.01933 | −0.0758 | −0.1021 | 
CN(C)C(=O)CCSC(SCCC(=O)O)c1cccc(/C=C/c2ccc3ccc(Cl)cc3n2)c1 (stereo not shown) [MK-571] | −0.00581 | 0.02432 | −0.02535 | −0.02967 | −0.00401 | TNBCType train [2, 13]: MSL
C=CCn1c(=O)c2cnc(Nc3ccc(N4CCN(C)CC4)cc3)nc2n1-c1cccc(C(C)(C)O)n1 [MK-1775] | −0.1537 | −0.09981 |  |  |  | IM Corr test ([2]; test cell set): −0.1878; M Corr test ([2]; test cell set): 0.1655; MSL Corr test ([2]; test cell set): 0.1175
CN(C[C@@H]1COCCO1)S(=O)(=O)Nc1ccc2ccc3ncc(-c4cnn(C)c4)cc3c(=O)c2c1 [MK-2461] |  |  | 0.05424 | −0.1288 | −0.01237 | DTIO Corr test [1, 10]: −0.00757; DTIO Corr train [1, 11]: −0.03035; TNBCType train [2, 12]: MSL
Cc1ccc(CNc2ncnc3ccc(-c4ccc(CO)o4)cc23)o1 [ML167] |  |  | −0.07672 | 0.05836 | 0.01781 | DTIO Corr test [1, 10]: −0.03284; DTIO Corr train [1, 11]: −0.07536
COc1ccccc1N1CCN(CCCCN2C(=O)CCC2=O)CC1 [MM77] | −0.06165 | −0.1241 |  |  |  | IM Corr test ([2]; test cell set): −0.07111; M Corr test ([2]; test cell set): 0.07806; MSL Corr test ([2]; test cell set): 0.009431

Compound | DTIO Corr test [1, 7] | DTIO Corr train [1, 8] | IM Corr test ([2]; test cell set (188 cell lines)) | M Corr test ([2]; test cell set (188 cell lines)) | MSL Corr test ([2]; test cell set (188 cell lines)) | other results
O=C(NCCCN1CCCCCC1)C(c1ccccc1)C1CCCCC1 (stereo not shown) [MR-16728] | 0.04353 | −0.1606 | −0.01298 | 0.0251 | 0.06487 | 
O=C(O)/C=C1\CCCc2ccccc2C1O (stereo not shown) [NCS-382] | −0.1705 | −0.1343 | −0.09394 | 0.1059 | 0.05928 | 
CCCN(CCC)CCc1ccc(OC)c(OCCc2ccccc2)c1 [NE-100] | 0.02588 | 0.0932 | 0.02328 | −0.05032 | −0.07257 | TNBCType train [2, 13]: MSL
O=Nc1ccc(O)c2ncccc12 [NSC-3852] | −0.00012 | 0.09356 | 0.06425 | −0.1666 | −0.09058 | DTIO Corr test [1, 14]: −0.00012; DTIO Corr train [1, 15]: 0.09356
CCN(CC)CCCC(C)Nc1nc(C)cc(Nc2ccc3nc(C)cc(N)c3c2)n1 (stereo not shown) [NSC-23766] | 0.048 | 0.0675 | −0.00484 | −0.06657 | 0.1332 | 
CCCCCCCC/C=C\CCCCCCCC(=O)NCCc1ccc(O)c(O)c1 [OLDA] |  |  | 0.0783 | −0.1742 | −0.06733 | DTIO Corr test ([1]; correlation of PRISM compound sensitivity with DTIO, test cell set (188 cell lines)): 0.08614; DTIO Corr train ([1]; correlation of PRISM compound sensitivity with DTIO, training cell set (371 cell lines)): 0.09584; TNBCType train ([2]; subtype (IM, MSL or M) the PRISM compound sensitivity is associated with, training cell set (371 cell lines), 101 gene signature): MSL
CCCCCCCC/C=C\CCCCCCCC(=O)N[C@@H](CO)Cc1ccc(O)cc1 [OMDM-2] | 0.08864 | 0.00432 |  |  |  | IM Corr test ([2]; test cell set): 0.07857; M Corr test ([2]; test cell set): −0.1315; MSL Corr test ([2]; test cell set): −0.1068; TNBCType train [2, 9]: MSL
C#Cc1cccc(Nc2ncnc3cc(OCCOC)c(OCCO)cc23)c1 [OSI-420] |  |  | −0.01776 | 0.1416 | 0.3027 | DTIO Corr test [1, 10]: 0.1184; DTIO Corr train [1, 11]: −0.1185
COc1cc2ncnc(Nc3cccc(Br)c3)c2cc1OC [PD-153035] | −0.03709 | −0.1232 |  |  |  | DTIO Corr test [1, 14]: −0.03709; DTIO Corr train [1, 15]: −0.1232; IM Corr test ([2]; test cell set): −0.1533; M Corr test ([2]; test cell set): 0.2905; MSL Corr test ([2]; test cell set): 0.3911
CC(=O)NCC(=O)N1[C@@H]2CC[C@H]1c1ccc(Nc3ncc(C(F)(F)F)c(NC4CCC4)n3)cc12 [PF-03814735] |  |  | 0.01597 | −0.07539 | −0.04366 | DTIO Corr test [1, 10]: −0.05974; DTIO Corr train [1, 11]: −0.01193; TNBCType train [2, 12]: MSL
OCCn1cc(-c2cnc3nnn(Cc4ccc5ncccc5c4)c3n2)cn1 [PF-04217903] |  |  | −0.04418 | 0.07402 | 0.07771 | DTIO Corr test [1, 10]: −0.00139; DTIO Corr train [1, 11]: −0.1163
C[C@H]1Oc2cc(cnc2N)-c2c(nn(C)c2C#N)CN(C)C(=O)c2ccc(F)cc21 [PF-06463922] | −0.00728 | −0.07689 | −0.1219 | −0.02078 | −0.05668 | TNBCType train [2, 13]: MSL
Cc1ccc([N+](=O)[O-])cc1S(=O)(=O)N(C)/N=C/c1cnc2ccc(Br)cn12 [PIK-75] | −0.1696 | −0.1178 |  |  |  | IM Corr test ([2]; test cell set): −0.1541; M Corr test ([2]; test cell set): 0.127; MSL Corr test ([2]; test cell set): 0.07706
Cc1ccccc1-n1c(Cn2ncc3c(N)ncnc32)nc2cccc(C)c2c1=O [PIK-293] | 0.02467 | −0.1397 |  |  |  | IM Corr test ([2]; test cell set): −0.06338; M Corr test ([2]; test cell set): 0.066; MSL Corr test ([2]; test cell set): 0.00947
Nc1ncnc2c1c(-c1cnc3[nH]ccc3c1)nn2C1CCCC1 [PP-121] |  |  | −0.08606 | 0.07821 | 0.02379 | DTIO Corr test [1, 10]: −0.08787; DTIO Corr train [1, 11]: −0.1218
N#CSc1cc(SC#N)c(N)nc1N [PR-619] | 0.05674 | 0.0993 |  |  |  | DTIO Corr test ([1]; correlation of compound sensitivity with DetermaIO (DTIO), test set): 0.05674; DTIO Corr train ([1]; correlation of compound sensitivity with DetermaIO (DTIO), training set): 0.0993; IM Corr test ([2]; test cell set): 0.1495; M Corr test ([2]; test cell set): −0.2203; MSL Corr test ([2]; test cell set): −0.1223
